Measurements reported in patent US20260132125A1, “PESTICIDALLY ACTIVE FUSED BICYCLIC HETEROAROMATIC COMPOUNDS” (priority 2022, published 2026).

Tests used:
Type in all cases: in vivo
[1] = tested on: Myzus persicae; assay: Example B4: activity against Myzus persicae (green peach aphid), intrinsic activity; conditions: 120 h, test rate 12 ppm, 5 days after infestation
Experimental: Test compounds prepared from 10′000 ppm DMSO stock solutions were applied by pipette into 24-well microtiter plates and mixed with sucrose solution. The plates were closed with a stretched Parafilm. A plastic stencil with 24 holes was placed onto the plate and infested pea seedlings were placed directly on the Parafilm. The infested plate was closed with a gel blotting paper and another plastic stencil and then turned upside down. The samples were assessed for mortality 5 days after infestation.

[2] = tested on: Diabrotica balteata; assay: Example B2: activity against Diabrotica balteata (corn root worm), maize sprouts; conditions: 96 h, L2 larvae, 4 days after infestation, read-out: effect in at least one of the two categories (mortality or growth inhibition)
Experimental: Maize sprouts placed onto an agar layer in 24-well microtiter plates were treated with aqueous test solutions prepared from 10′000 ppm DMSO stock solutions by spraying. After drying, the plates were infested with L2 larvae (6 to 10 per well). The samples were assessed for mortality and growth inhibition in comparison to untreated samples 4 days after infestation. The following compounds gave an effect of at least 80% in at least one of the two categories (mortality or growth inhibition) at an application rate of 200 ppm: P1, P2, P3, P4, P5, P7, P8, P9, P10, P11, P12, P13, P14, P15, P16, P17, P18, P19, P20, P21, P22, P23, P24, P25, P26, P27, P28, P29, P30, P31, P33, P34, P35, P36, P37, P38, P39, P40, P41, P42, P43, P45, P46, P47, P48, P49, P50, P51, P52, P53, P55, P57, P58, P59, P60, P61, P62, P63, P64, P65, P66, P67, P69, P71, P75, P81, P82, P83.

[3] = tested on: Chilo suppressalis; assay: Example B1: activity against Chilo suppressalis (striped rice stemborer), artificial diet; conditions: for percent control (mortality, anti-feedant effect or growth inhibition) at 200 ppm: 144 h, L2 larvae, 6 days after infestation, read-out: control (at least one of mortality, anti-feedant effect, growth inhibition)
Experimental: 24-well microtiter plates with artificial diet were treated with aqueous test solutions prepared from 10′000 ppm DMSO stock solutions by pipetting. After drying, the plates were infested with L2 larvae (6-8 per well). The samples were assessed for mortality, anti-feeding effect, and growth inhibition in comparison to untreated samples 6 days after infestation. Control of Chilo suppressalis by a test sample is given when at least one of the categories mortality, anti-feedant effect, and growth inhibition is higher than the untreated sample.

[4] = tested on: Plutella xylostella; assay: Example B5: activity against Plutella xylostella (diamond back moth), artificial diet, eggs; conditions: 192 h, 8 days after infestation, read-out: effect in at least one of the two categories (mortality or growth inhibition)
Experimental: 24-well microtiter plates with artificial diet were treated with aqueous test solutions prepared from 10′000 ppm DMSO stock solutions by pipetting. After drying, Plutella eggs were pipetted through a plastic stencil onto a gel blotting paper and the plate was closed with it. The samples were assessed for mortality and growth inhibition in comparison to untreated samples 8 days after infestation. The following compounds gave an effect of at least 80% in at least one of the two categories (mortality or growth inhibition) at an application rate of 200 ppm: P1, P2, P3, P4, P5, P6, P7, P8, P9, P10, P11, P12, P13, P14, P15, P16, P17, P18, P19, P20, P21, P22, P23, P24, P25, P26, P27, P28, P29, P30, P31, P32, P33, P34, P35, P36, P37, P38, P39, P40, P41, P42, P43, P44, P45, P46, P47, P48, P49, P50, P51, P52, P53, P54, P55, P57, P58, P59, P60, P61, P62, P63, P64, P65, P66, P67, P69, P70, P71, P72, P73, P74, P75, P77, P78, P81, P82, P83.

[5] = tested on: Spodoptera littoralis; assay: Example B6: activity against Spodoptera littoralis (Egyptian cotton leaf worm), cotton leaf discs; conditions: foliar, 72 h, 200 ppm, L1 larvae, 3 days after infestation, read-out: control (at least one of mortality, anti-feedant effect, growth inhibition)
Experimental: Cotton leaf discs were placed onto agar in 24-well microtiter plates and sprayed with aqueous test solutions prepared from 10′000 ppm DMSO stock solutions. After drying the leaf discs were infested with five L1 larvae. The samples were assessed for mortality, anti-feeding effect, and growth inhibition in comparison to untreated samples 3 days after infestation. Control of Spodoptera littoralis by a test sample is given when at least one of the categories mortality, anti-feedant effect, and growth inhibition is higher than the untreated sample.

Compound	mortality at 12 ppm [1] [%]	percent effect (mortality or growth inhibition) at 200 ppm [2] [%]	percent control (mortality, anti-feedant effect or growth inhibition) at 200 ppm [3] [%]	percent effect (mortality or growth inhibition) at 200 ppm [4] [%]	percent control (mortality, anti-feedant effect or growth inhibition) at 200 ppm [5] [%]	mortality at 12.5 ppm ([3]; 12.5 ppm) [%]
CNC(=O)c1cc(-n2ncnc2[C@H](C)Nc2ncnc3c(Cl)cc(I)cc23)ncn1 [Compound P4, 6-[5-[(1S)-1-[(8-chloro-6-iodo-quinazolin-4-yl)amino]ethyl]-1,2,4-triazol-1-yl]-N-methyl-pyrimidine-4-carboxamide]	≥ 80	≥ 80	≥ 80	≥ 80	≥ 80	–
CNC(=O)c1cc(-n2ncnc2[C@H](C)N(C)c2ncnc3c(Br)cc(Br)cc23)ncn1 [Compound P11, 6-[5-[(1S)-1-[(6,8-dibromoquinazolin-4-yl)-methyl-amino]ethyl]-1,2,4-triazol-1-yl]-N-methyl-pyrimidine-4-carboxamide]	≥ 80	≥ 80	≥ 80	≥ 80	≥ 80	–
CNC(=O)c1cc(-n2ncnc2[C@H](C)Nc2ncnc3c(Br)cc(Br)cc23)ncn1 [Compound P12, 6-[5-[(1S)-1-[(6,8-dibromoquinazolin-4-yl)amino]ethyl]-1,2,4-triazol-1-yl]-N-methyl-pyrimidine-4-carboxamide]	≥ 80	≥ 80	≥ 80	≥ 80	≥ 80	–
C[C@H](Nc1ncnc2c(Cl)cc(I)cc12)c1ncnn1-c1cc(C#N)ncn1 [Compound P18, 6-[5-[(1S)-1-[(8-chloro-6-iodo-quinazolin-4-yl)amino]ethyl]-1,2,4-triazol-1-yl]pyrimidine-4-carbonitrile]	≥ 80	≥ 80	≥ 80	≥ 80	≥ 80	–
C[C@H](Nc1ncnc2c(C(F)(F)F)cc(Cl)cc12)c1ncnn1-c1cc(C#N)ncn1 [Compound P19, 6-[5-[(1S)-1-[[6-chloro-8-(trifluoromethyl)quinazolin-4-yl]amino]ethyl]-1,2,4-triazol-1-yl]pyrimidine-4-carbonitrile]	≥ 80	≥ 80	≥ 80	≥ 80	≥ 80	80
C[C@H](Nc1ncnc2c(C(F)(F)F)cc(Cl)cc12)c1ncnn1-c1cc(C(=O)NC2CC2)ncn1 [Compound P23, 6-[5-[(1S)-1-[[6-chloro-8-(trifluoromethyl)quinazolin-4-yl]amino]ethyl]-1,2,4-triazol-1-yl]-N-cyclopropyl-pyrimidine-4-carboxamide]	≥ 80	≥ 80	≥ 80	≥ 80	≥ 80	–
C[C@H](Nc1ncnc2c(C(F)(F)F)cc(Cl)cc12)c1ncnn1-c1cc(C(=O)NC2CS(=O)(=O)C2)ncn1 [Compound P24, 6-[5-[(1S)-1-[[6-chloro-8-(trifluoromethyl)quinazolin-4-yl]amino]ethyl]-1,2,4-triazol-1-yl]-N-(1,1-dioxothietan-3-yl)pyrimidine-4-carboxamide]	≥ 80	≥ 80	≥ 80	≥ 80	≥ 80	–
C[C@H](Nc1ncnc2c(C(F)(F)F)cc(Cl)cc12)c1ncnn1-c1cc(C(=O)NC2CSC2)ncn1 [Compound P25, 6-[5-[(1S)-1-[[6-chloro-8-(trifluoromethyl)quinazolin-4-yl]amino]ethyl]-1,2,4-triazol-1-yl]-N-(thietan-3-yl)pyrimidine-4-carboxamide]	≥ 80	≥ 80	≥ 80	≥ 80	≥ 80	–
C[C@H](Nc1ncnc2c(C(F)(F)F)cc(Cl)cc12)c1ncnn1-c1cc(C(=O)NO)ncn1 [Compound P26, 6-[5-[(1S)-1-[[6-chloro-8-(trifluoromethyl)quinazolin-4-yl]amino]ethyl]-1,2,4-triazol-1-yl]pyrimidine-4-carbohydroxamic acid]	≥ 80	≥ 80	≥ 80	≥ 80	≥ 80	–
CNC(=O)c1cc(-n2ncnc2[C@H](C)N(C)c2ncnc3c(Cl)cc(I)cc23)ncn1 [Compound P34, 6-[5-[(1S)-1-[(8-chloro-6-iodo-quinazolin-4-yl)-methyl-amino]ethyl]-1,2,4-triazol-1-yl]-N-methyl-pyrimidine-4-carboxamide]	≥ 80	≥ 80	≥ 80	≥ 80	≥ 80	–
C[C@H](Nc1ncnc2c(Br)cc(Br)cc12)c1ncnn1-c1ncc(C(N)=O)s1 [Compound P36, 2-[5-[(1S)-1-[(6,8-dibromoquinazolin-4-yl)amino]ethyl]-1,2,4-triazol-1-yl]thiazole-5-carboxamide]	≥ 80	≥ 80	≥ 80	≥ 80	≥ 80	–
C[C@H](Nc1ncnc2c(Br)cc(Br)cc12)c1ncnn1-c1cnc(C(=O)NCC#N)cn1 [Compound P72, N-(cyanomethyl)-5-[5-[(1S)-1-[(6,8-dibromoquinazolin-4-yl)amino]ethyl]-1,2,4-triazol-1-yl]pyrazine-2-carboxamide]	≥ 80	–	≥ 80	≥ 80	≥ 80	–
C[C@H](Nc1ncnc2c(I)cc(Cl)cc12)c1ncnn1-c1cnc(C(=O)NCC#N)cn1 [Compound P73, 5-[5-[(1S)-1-[(6-chloro-8-iodo-quinazolin-4-yl)amino]ethyl]-1,2,4-triazol-1-yl]-N-(cyanomethyl)pyrazine-2-carboxamide]	≥ 80	–	≥ 80	≥ 80	≥ 80	–
